Data as given in the supplement of paper PMC10627819.
Converted amounts (≈) assume the structure as drawn.

How the values were obtained:
S. aureus DSM 20231 [1] = system: S. aureus DSM 20231
S. aureus Newman [2] = system: S. aureus Newman
S. pneumoniae D39V [3] = system: S. pneumoniae D39V
B. subtilis 168 [4] = assay: fitness (endpoint OD595 vs no drug) (fraction); higher = more growth
Outline: (§1)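 Each well of a 384-well plate received 30 µl of culture at OD595 0.01, or 55 µl for S. pneumoniae. TSB, LB Lennox or CY served as media at 37 °C. OD595 was taken every 30 min for 14 h and corrected by subtracting the first reading. Fitness is the optical density at stationary-phase entry divided by the robust mean of no-drug controls, capped at 1.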

S. aureus DSM 20231 [5] = assay: as above
Outline: as §1

S. aureus Newman [6] = assay: as above
Outline: as §1

S. pneumoniae D39V [7] = assay: as above
Outline: as §1

B. subtilis 168 [8] = assay: Bliss interaction score (quartile over a dose matrix) (fitness difference); higher = more antagonism (negative = synergy)
Outline: (§2)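 Each plate was normalised to the robust mean of its own no-drug wells, using OD595 at entry into stationary phase, with values capped at 1. This normalised growth is the fitness value. The Bliss score is the difference between observed and product-expected fitness, with single-drug fitness inferred from the combination data and quartiles taken over technical, biological and donor/recipient replicates.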

S. aureus DSM 20231 [9] = assay: as above
Outline: as §2

S. aureus Newman [10] = assay: as above
Outline: as §2

S. pneumoniae D39V [11] = assay: as above
Outline: as §2
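Throughout, for Bliss interaction score (quartile over a dose matrix): first quartile when negative (synergy) and third quartile when positive (antagonism).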

COc1c(N2C[C@@H]3CCCN[C@@H]3C2)c(F)cc2c(=O)c(C(=O)O)cn(C3CC3)c12 [Moxifloxacin]
Conditions | MIC [µg/mL]
S. aureus DSM 20231 [1] | 0.033 (≈ 0.0822 µM)
S. aureus Newman [2] | 0.033 (≈ 0.0822 µM)
S. pneumoniae D39V [3] | 0.25 (≈ 0.623 µM)

Conditions | fitness
B. subtilis 168 [4], 0.0312 µg/mL | 0.0397
B. subtilis 168 [4], 0.0625 µg/mL | 0.0388
B. subtilis 168 [4], 0.125 µg/mL | 0.0181
B. subtilis 168 [4], 2 µg/mL | 0.0291
B. subtilis 168 [4], 4 µg/mL | 0.0224
B. subtilis 168 [4], 8 µg/mL | 0.0114
S. aureus DSM 20231 [5], 0.0075 µg/mL | 0.888
S. aureus DSM 20231 [5], 0.015 µg/mL | 0.824
S. aureus DSM 20231 [5], 0.03 µg/mL | 0.665
S. aureus Newman [6], 0.0075 µg/mL | 0.748
S. aureus Newman [6], 0.015 µg/mL | 0.642
S. aureus Newman [6], 0.03 µg/mL | 0.0899
S. pneumoniae D39V [7], 0.0037 µg/mL | 0.9
S. pneumoniae D39V [7], 0.0075 µg/mL | 0.916
S. pneumoniae D39V [7], 0.015 µg/mL | 0.862
S. pneumoniae D39V [7], 0.0312 µg/mL | 0.134
S. pneumoniae D39V [7], 0.0625 µg/mL | 0.088
S. pneumoniae D39V [7], 0.125 µg/mL | 0.0638

COc1c(N2C[C@@H]3CCCN[C@@H]3C2)c(F)cc2c(=O)c(C(=O)O)cn(C3CC3)c12 [Moxifloxacin] + CC1=C\[C@@H](O)CC(=O)Cc2nc(co2)C(=O)N2CCC=C2C(=O)O[C@H](C(C)C)[C@H](C)/C=C/C(=O)NC\C=C\1 [Virginiamycin M1]
Conditions | fitness
B. subtilis 168 [4], first compound 0.0312 µg/mL, partner 0.0625 µg/mL | 0.0441
B. subtilis 168 [4], first compound 0.0312 µg/mL, partner 0.125 µg/mL | 0.0556
B. subtilis 168 [4], first compound 0.0312 µg/mL, partner 0.25 µg/mL | 0.0499
B. subtilis 168 [4], first compound 0.0625 µg/mL, partner 0.0625 µg/mL | 0.0365
B. subtilis 168 [4], first compound 0.0625 µg/mL, partner 0.125 µg/mL | 0.0573
B. subtilis 168 [4], first compound 0.0625 µg/mL, partner 0.25 µg/mL | 0.0434
B. subtilis 168 [4], first compound 0.125 µg/mL, partner 0.0625 µg/mL | 0.044
B. subtilis 168 [4], first compound 0.125 µg/mL, partner 0.125 µg/mL | 0.0517
B. subtilis 168 [4], first compound 0.125 µg/mL, partner 0.25 µg/mL | 0.0468
B. subtilis 168 [4], first compound 2 µg/mL, partner 0.0625 µg/mL | 0.0224
B. subtilis 168 [4], first compound 2 µg/mL, partner 0.125 µg/mL | 0.0234
B. subtilis 168 [4], first compound 2 µg/mL, partner 0.25 µg/mL | 0.0324
B. subtilis 168 [4], first compound 4 µg/mL, partner 0.0625 µg/mL | 0.0209
B. subtilis 168 [4], first compound 4 µg/mL, partner 0.125 µg/mL | 0.0242
B. subtilis 168 [4], first compound 4 µg/mL, partner 0.25 µg/mL | 0.0192
B. subtilis 168 [4], first compound 8 µg/mL, partner 0.0625 µg/mL | 0.0121
B. subtilis 168 [4], first compound 8 µg/mL, partner 0.125 µg/mL | 0.0128
B. subtilis 168 [4], first compound 8 µg/mL, partner 0.25 µg/mL | 0.0206
S. aureus DSM 20231 [5], first compound 0.0075 µg/mL, partner 0.0625 µg/mL | 0.812
S. aureus DSM 20231 [5], first compound 0.0075 µg/mL, partner 0.125 µg/mL | 0.901
S. aureus DSM 20231 [5], first compound 0.0075 µg/mL, partner 0.25 µg/mL | 0.81
S. aureus DSM 20231 [5], first compound 0.015 µg/mL, partner 0.0625 µg/mL | 0.702
S. aureus DSM 20231 [5], first compound 0.015 µg/mL, partner 0.125 µg/mL | 0.72
S. aureus DSM 20231 [5], first compound 0.015 µg/mL, partner 0.25 µg/mL | 0.776
S. aureus DSM 20231 [5], first compound 0.03 µg/mL, partner 0.0625 µg/mL | 0.609
S. aureus DSM 20231 [5], first compound 0.03 µg/mL, partner 0.125 µg/mL | 0.67
S. aureus DSM 20231 [5], first compound 0.03 µg/mL, partner 0.25 µg/mL | 0.662
S. aureus Newman [6], first compound 0.0075 µg/mL, partner 0.0625 µg/mL | 0.764
S. aureus Newman [6], first compound 0.0075 µg/mL, partner 0.125 µg/mL | 0.762
S. aureus Newman [6], first compound 0.0075 µg/mL, partner 0.25 µg/mL | 0.795
S. aureus Newman [6], first compound 0.015 µg/mL, partner 0.0625 µg/mL | 0.545
S. aureus Newman [6], first compound 0.015 µg/mL, partner 0.125 µg/mL | 0.556
S. aureus Newman [6], first compound 0.015 µg/mL, partner 0.25 µg/mL | 0.517
S. aureus Newman [6], first compound 0.03 µg/mL, partner 0.0625 µg/mL | 0.0697
S. aureus Newman [6], first compound 0.03 µg/mL, partner 0.125 µg/mL | 0.0796
S. aureus Newman [6], first compound 0.03 µg/mL, partner 0.25 µg/mL | 0.0787
S. pneumoniae D39V [7], first compound 0.0037 µg/mL, partner 2 µg/mL | 0.802
S. pneumoniae D39V [7], first compound 0.005 µg/mL, partner 0.5 µg/mL | 0.999
S. pneumoniae D39V [7], first compound 0.005 µg/mL, partner 1 µg/mL | ≥ 1
S. pneumoniae D39V [7], first compound 0.005 µg/mL, partner 2 µg/mL | 0.99
S. pneumoniae D39V [7], first compound 0.0075 µg/mL, partner 2 µg/mL | 0.869
S. pneumoniae D39V [7], first compound 0.01 µg/mL, partner 0.5 µg/mL | ≥ 1
S. pneumoniae D39V [7], first compound 0.01 µg/mL, partner 1 µg/mL | 0.992
S. pneumoniae D39V [7], first compound 0.01 µg/mL, partner 2 µg/mL | 0.979
S. pneumoniae D39V [7], first compound 0.015 µg/mL, partner 2 µg/mL | 0.811
S. pneumoniae D39V [7], first compound 0.02 µg/mL, partner 0.5 µg/mL | 0.981
S. pneumoniae D39V [7], first compound 0.02 µg/mL, partner 1 µg/mL | 0.995
S. pneumoniae D39V [7], first compound 0.02 µg/mL, partner 2 µg/mL | 0.963

one replicate
Conditions | fitness
S. aureus DSM 20231 [5], first compound 0.0075 µg/mL, partner 0.5 µg/mL | 0.785
S. aureus DSM 20231 [5], first compound 0.0075 µg/mL, partner 1 µg/mL | 0.81
S. aureus DSM 20231 [5], first compound 0.015 µg/mL, partner 0.5 µg/mL | 0.787
S. aureus DSM 20231 [5], first compound 0.015 µg/mL, partner 1 µg/mL | 0.793
S. aureus DSM 20231 [5], first compound 0.03 µg/mL, partner 0.5 µg/mL | 0.693
S. aureus DSM 20231 [5], first compound 0.03 µg/mL, partner 1 µg/mL | 0.734
S. aureus DSM 20231 [5], first compound 0.06 µg/mL, partner 0.0625 µg/mL | 0.686
S. aureus DSM 20231 [5], first compound 0.06 µg/mL, partner 0.125 µg/mL | 0.695
S. aureus DSM 20231 [5], first compound 0.06 µg/mL, partner 0.25 µg/mL | 0.69
S. aureus DSM 20231 [5], first compound 0.12 µg/mL, partner 0.0625 µg/mL | 0.462
S. aureus DSM 20231 [5], first compound 0.12 µg/mL, partner 0.125 µg/mL | 0.471
S. aureus DSM 20231 [5], first compound 0.12 µg/mL, partner 0.25 µg/mL | 0.46
S. aureus Newman [6], first compound 0.0075 µg/mL, partner 0.5 µg/mL | 0.659
S. aureus Newman [6], first compound 0.0075 µg/mL, partner 1 µg/mL | 0.758
S. aureus Newman [6], first compound 0.0075 µg/mL, partner 2 µg/mL | 0.665
S. aureus Newman [6], first compound 0.015 µg/mL, partner 0.5 µg/mL | 0.654
S. aureus Newman [6], first compound 0.015 µg/mL, partner 1 µg/mL | 0.643
S. aureus Newman [6], first compound 0.015 µg/mL, partner 2 µg/mL | 0.579
S. aureus Newman [6], first compound 0.03 µg/mL, partner 0.5 µg/mL | 0.465
S. aureus Newman [6], first compound 0.03 µg/mL, partner 1 µg/mL | 0.414
S. aureus Newman [6], first compound 0.03 µg/mL, partner 2 µg/mL | 0.323
S. pneumoniae D39V [7], first compound 0.0037 µg/mL, partner 0.15 µg/mL | 0.808
S. pneumoniae D39V [7], first compound 0.0037 µg/mL, partner 0.3 µg/mL | 0.758
S. pneumoniae D39V [7], first compound 0.0037 µg/mL, partner 0.5 µg/mL | 0.97
S. pneumoniae D39V [7], first compound 0.0037 µg/mL, partner 1 µg/mL | 0.95
S. pneumoniae D39V [7], first compound 0.0075 µg/mL, partner 0.15 µg/mL | 0.911
S. pneumoniae D39V [7], first compound 0.0075 µg/mL, partner 0.3 µg/mL | 0.877
S. pneumoniae D39V [7], first compound 0.0075 µg/mL, partner 0.5 µg/mL | 0.965
S. pneumoniae D39V [7], first compound 0.0075 µg/mL, partner 1 µg/mL | 0.934
S. pneumoniae D39V [7], first compound 0.015 µg/mL, partner 0.15 µg/mL | 0.832
S. pneumoniae D39V [7], first compound 0.015 µg/mL, partner 0.3 µg/mL | 0.843
S. pneumoniae D39V [7], first compound 0.015 µg/mL, partner 0.5 µg/mL | 0.933
S. pneumoniae D39V [7], first compound 0.015 µg/mL, partner 1 µg/mL | 0.873

Conditions | Bliss interaction score
B. subtilis 168 [8] | -0.0191
S. aureus DSM 20231 [9] | -0.0567
S. aureus Newman [10] | -0.0536
S. pneumoniae D39V [11] | 0.065
